Assay results as given in PubChem BioAssay (NCI).
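Cells were grown in 96-well plates and exposed to each compound for 48 hours at five concentrations; endpoints were interpolated linearly between bracketing concentrations, or set to the highest concentration if not reached. GI50 = concentration required for 50% inhibition of growth. At the TGI there is no net growth.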

Assays:
Assay in all cases: inhibition of tumour cell growth, NCI panel, 48 h
[1] = test system: XF 498 CNS
[2] = test system: OVCAR-4 ovarian
[3] = test system: KM20L2 colon
[4] = test system: SF-268 CNS
[5] = test system: HCT-116 colon
[6] = test system: HCC-2998 colon
[7] = test system: MALME-3M melanoma
[8] = test system: SK-OV-3 ovarian
[9] = test system: T-47D breast
[10] = test system: MDA-MB-231 breast

Row | SMILES | TGI [1] [µM] | TGI [2] [µM] | TGI [3] [µM] | TGI [4] [µM] | TGI [5] [µM] | TGI [6] [µM] | TGI [7] [µM] | GI50 [1] [µM] | GI50 [8] [µM] | TGI [8] [µM] | GI50 [2] [µM] | GI50 [3] [µM] | GI50 [4] [µM] | GI50 [5] [µM] | GI50 [6] [µM] | GI50 [9] [µM] | TGI [9] [µM] | GI50 [10] [µM] | TGI [10] [µM] | GI50 [7] [µM]
1 | NC1=NC(=O)C(CC(=O)Nc2ccc([N+](=O)[O-])cc2[N+](=O)[O-])S1 (stereo unspecified) | > 100 | > 100 | > 100 | > 100 | > 100 | > 100 | > 100 | – | – | – | – | – | – | – | – | – | – | – | – | –
2 | c1cc[c]([Sn]([S]c2cccc3cccnc23)([c]2ccccc2)[c]2ccccc2)cc1 | 0.0524 | 0.0644 | 0.109 | 0.241 | 0.039 | 0.096 | – | 0.0241 | 0.107 | 0.356 | 0.0171 | 0.0338 | 0.0469 | 0.0161 | 0.0433 | – | – | – | – | –
3 | CC1(C)CCc2cc3c(cc2O1)OCCC3=O | > 100 | > 100 | > 100 | > 100 | > 100 | > 100 | > 100 | – | – | > 100 | – | – | – | – | – | – | – | – | – | –
4 | c1ccc2c(c1)N=C(c1cccc3ccccc13)CC(c1cccc3ccccc13)S2 (stereo unspecified) | 22.1 | 12.4 | 10.4 | 20.4 | 12.9 | 11.2 | 28.7 | – | – | 29.8 | – | – | – | – | – | – | – | – | – | –
5 | CCOC(=O)Cc1nc(/C(C#N)=C/c2ccco2)[nH]c(=O)c1C#N | – | > 100 | > 100 | – | > 100 | > 100 | – | – | – | > 100 | – | – | – | – | – | – | – | – | – | –
6 | CC(=O)[CH-]C(C)=O.CC(=O)[CH-]C(C)=O.N=CC=N.[Sn+2] | 16.5 | 10.5 | 20.9 | 10.5 | 3.42 | 25.2 | 4.24 | 6.49 | 8.74 | 21.7 | 2.62 | 8.54 | 3.28 | 1.72 | 12.5 | 1.23 | 2.62 | 2.72 | 9.87 | 2.02
7 | CC(=O)c1c(C)n([O-])c2cc(C)c(C)cc2[n+]1=O | > 100 | > 100 | > 100 | > 100 | – | > 100 | > 100 | – | – | > 100 | – | – | – | – | – | – | – | – | – | –
8 | O=C1N[C@@H](O)[C@@H]2ON=C(c3ccccc3)[C@H]12 | > 100 | > 100 | > 100 | > 100 | > 100 | > 100 | > 100 | – | – | > 100 | – | – | – | – | – | – | – | – | – | –
9 | CC(C)(C)c1nc2c(o1)C(=Nc1ccc(F)cc1)c1ccccc1C2=O | 3.94 | > 100 | 32.5 | > 62.9 | 38.2 | 20.5 | 4.45 | – | – | 45.9 | – | – | – | – | – | – | > 100 | – | > 100 | –
10 | COc1ccc2c(-c3cc4ccccc4o3)cc(=O)oc2c1 | 45 | 71.8 | > 100 | > 94 | > 100 | > 100 | > 100 | – | – | 52.1 | – | – | – | – | – | – | > 100 | – | > 100 | –
11 | COc1cc(/C=C\c2ccc(O)cc2)cc(OC)c1OC | > 100 | > 100 | > 100 | 4.63 | > 59.8 | > 79 | > 40.9 | – | – | 61.6 | – | – | – | – | – | – | – | – | – | –
12 | Clc1ccc(CNc2nc3ccccc3nc2-c2cccs2)c(Cl)c1 | > 100 | – | > 100 | > 100 | > 100 | > 100 | > 100 | – | – | – | – | – | – | – | – | – | – | – | – | –
13 | CC(=O)OCCOCBr | > 100 | > 100 | > 100 | > 100 | > 100 | – | > 100 | – | – | > 100 | – | – | – | – | – | – | – | – | – | –
14 | CC1=Nc2c(ccc3c2C(=O)c2ccccc2C3=O)NC(c2ccncc2)C1 (stereo unspecified) | > 100 | > 100 | > 100 | – | > 100 | > 100 | > 100 | – | – | > 100 | > 100 | > 100 | – | – | > 100 | – | – | – | – | > 100
15 | CC(O)CN1C(=O)NC(Cc2ccccc2)C1=O (stereo unspecified) | > 100 | – | > 100 | > 100 | – | > 100 | – | – | – | – | – | – | – | – | – | – | – | – | – | –
16 | CN(C)C(=S)/N=c1\ss/c(=N\S(=O)(=O)c2ccccc2)n1-c1ccccc1 | 79.4 | > 100 | – | > 100 | – | > 100 | > 100 | – | – | > 100 | – | – | – | – | – | – | – | – | – | –
17 | Clc1cc(Cl)c2c(Cl)cc(Cl)c3c2c1N=S=N3 | 49 | > 100 | > 100 | > 100 | > 100 | > 100 | > 100 | – | – | > 100 | – | – | – | – | – | – | – | – | – | –
18 | CC(C)(C)C1(O)Cc2ccccc2C(=O)O1 (stereo unspecified) | – | > 100 | > 100 | > 100 | > 100 | > 100 | > 100 | – | – | > 100 | – | – | – | – | – | – | – | – | – | –

Row | SMILES | TGI [1] [µM] | TGI [2] [µM] | TGI [3] [µM] | TGI [4] [µM] | TGI [5] [µM] | TGI [6] [µM] | TGI [7] [µM] | GI50 [1] [µM] | GI50 [8] [µM] | TGI [8] [µM] | GI50 [2] [µM] | GI50 [3] [µM] | GI50 [4] [µM] | GI50 [5] [µM] | GI50 [6] [µM] | GI50 [9] [µM] | TGI [9] [µM] | GI50 [10] [µM] | TGI [10] [µM] | GI50 [7] [µM]
19 | CN1CCN(C)C1c1cccc(C2N(C)CCN2C)c1 | – | > 100 | > 100 | > 100 | > 100 | > 100 | – | – | – | > 100 | – | – | – | – | – | – | – | – | – | –
20 | COc1ccc(C2C(N)=NCC2c2ccccn2)cc1 (stereo unspecified) | > 100 | > 100 | > 100 | > 100 | > 100 | > 100 | > 100 | – | – | > 100 | – | – | – | – | – | – | – | – | – | –
21 | NS(=O)(=O)c1ccc(NC(=O)c2cccc3c(=O)c4ccccc4[nH]c23)cc1 | > 100 | > 100 | > 100 | > 100 | > 100 | > 100 | 94.8 | – | – | 65.6 | – | – | – | – | – | – | – | – | – | –
22 | CC1CCCC(C(=O)/C(=C/c2cccc(Cl)c2)C(=O)C(=O)O)C1 (stereo unspecified) | – | > 100 | 90 | 92.3 | 26.9 | 25.4 | > 100 | – | – | > 100 | – | – | – | – | – | – | – | – | – | –
23 | N#Cc1c(N)c(C(=O)O)nn(-c2cccc(C(F)(F)F)c2)c1=O | > 100 | – | > 100 | > 100 | > 100 | – | > 100 | – | – | > 100 | – | – | – | – | – | – | – | – | – | –
24 | CCCCCCNc1nc(NCCCCCC)c2[nH]c(NCCCCCC)nc2n1 | – | 21.2 | – | 15.5 | 3.46 | 26.8 | 16.1 | – | 24.8 | > 74.1 | 6.97 | – | 4.36 | 1.34 | 12.5 | 2.42 | 17.3 | 5.09 | 19.3 | 4.5
25 | COC(=O)c1c(O)ccc2[nH]c(C)c(C#N)c12 | – | > 100 | – | > 100 | 61.5 | > 100 | 94 | – | 97.5 | > 100 | > 100 | – | 40 | 22 | 95.1 | 44.4 | > 100 | 39.9 | > 100 | 47.9
26 | COc1ccc(C2C(C#N)=C(N)OC3=C2CCCc2ccc(F)cc23)cc1OC (stereo unspecified) | – | 68 | – | 48.5 | 39.1 | 31.6 | 40 | – | 25.4 | 57.7 | 23 | – | 20.1 | 11 | 15.6 | 46.1 | 98.3 | 17.3 | 45.5 | 18.5
27 | Oc1c2c(c(O)c3ccccc13)=N[C@@H](c1ccccc1)[C@H](c1ccccc1)N=2 | > 100 | > 100 | – | > 100 | > 100 | > 100 | > 100 | – | – | > 100 | – | – | – | – | – | – | – | – | – | –
28 | CC/C=C\C/C=C\C1CC(=O)NCCCNCCCCN1 (stereo unspecified) | – | > 100 | > 100 | > 100 | > 100 | > 100 | 78.9 | – | – | – | – | – | – | – | – | – | – | – | – | –
29 | COc1cc2c3c(n(CCCN4CCC(N)CC4)c(=O)c2cc1OC)-c1cc2c(cc1C3=O)OCO2 | – | 1.27 | – | 8.89 | 0.807 | 3.52 | 9.89 | – | 3.47 | 13.2 | 0.211 | – | 1.72 | 0.119 | 0.143 | 1.06 | 4 | 0.682 | 1.36 | 2.09
30 | C=C(COC(C)=O)CC(/C=C(\C)CCC=C(C)C)OC(C)=O (stereo unspecified) | > 100 | > 100 | > 100 | > 100 | > 100 | > 100 | – | – | – | > 100 | – | – | – | – | – | – | – | – | – | –
31 | CS(=O)(=O)Nc1ccc(-c2ccc3c(NC(=O)C4CC4)n[nH]c3c2)cc1 | – | > 25 | – | > 25 | > 25 | > 25 | > 25 | – | 13.7 | > 25 | 7.2 | – | > 25 | > 25 | > 25 | > 13.2 | > 25 | > 25 | > 25 | > 23.1
32 | O=c1c2ccccc2c2c3c1cccc3c1cccc3c(=O)c4ccccc4c2c31 | – | > 100 | > 100 | > 100 | > 100 | > 100 | > 100 | – | – | > 100 | – | – | – | – | – | – | – | – | – | –
33 | O=C(Nc1ccc(S(=O)(=O)N[C@@H](C(=O)O)c2ccccc2)cc1)c1ccc(F)cc1 | > 100 | > 100 | > 100 | > 100 | – | > 100 | > 100 | – | – | > 100 | – | – | – | – | – | – | – | – | – | –
34 | CCCCCC(=O)Oc1ccc(/C(=C(\C)c2ccc(OC)cc2)c2ccc(OCCN3CCCCC3)cc2)cc1 | – | 18.5 | – | 26.9 | 20.5 | 25.5 | 10.4 | – | 10.6 | 22.7 | 4.95 | – | 11.6 | 7.36 | 12.5 | 2 | 16.5 | 9.32 | 21.9 | 2.84
35 | O=C1c2ccccc2-c2cccc3ccc(Cc4ccccc4)c1c23 | > 100 | > 100 | > 100 | > 100 | > 100 | > 100 | > 100 | – | – | – | – | – | – | – | – | – | – | – | – | –
